{"source": "patent US5690954A", "about": "“Enhanced uptake drug delivery system having microspheres containing an active drug and a bioavailability improving material” (priority 1987, dated 1997)", "molecules": {"B1": {"name": "CCK: CCK (peptide, UniProt P06307 21-115, looked up)", "Cholecystokinin": "QPVPPADPAGSGLQRAEEAPRRQLRVSQRTDGESRAHLGALLARYIQQARKAPSGRMSIVKNLQNLDPSHRISDRDYMGWMDFGRRSAEEYEYPS"}}, "key": {"[1]": {"conditions": "intranasal, simple solution, versus intravenous; cited from earlier work"}, "[2]": {"test": "Bioavailability enhancement by microspheres plus bioavailability increasing material (general statement)", "excerpt": "The material selected for these studies has been lysophosphatidylcholine (described above)."}, "[3]": {"test": "Maximum loading capacity of albumin microspheres", "format": "physicochemical", "conditions": "emulsion technique", "method": "The active agent can be incorporated into the microspheres during their formulation or sorbed into/onto the system after preparation.\nAlbumin microspheres were prepared as described above by an emulsion technique with a stirring speed of 900 rpm and the model drug dissolved in the albumin solution at various concentrations.\nConcentrations of 0.5, 2, 4 and 5% w/v Rose bengal were used. […] Due to the solution characteristics of sodium cromoglycate in water the highest concentration that could be used was […]. Thus, microspheres were manufactured from solutions containing 0.5, 1, 2 and 4% w/v sodium cromoglycate."}, "[4]": {"conditions": "cited from earlier work"}, "[5]": {"test": "Zn-/Na-insulin nasal in rabbits, plasma glucose", "format": "in vivo, New Zealand White rabbits", "conditions": "rabbit; for shape of plasma glucose curves versus s.c.: intranasal microspheres and LPC 2.5 IU/kg versus 0.6 IU/kg s.c.; for plasma glucose levels: intranasal microspheres and LPC, 2.5 IU/kg; for plasma glucose levels versus simple insulin solution: intranasal solution with 0.2% LPC, about 2.3 IU/kg", "method": "Preparations of Zn-insulin (mainly hexamer form) or Na-insulin (mainly monomer/dimer forms) were administered nasally to rabbits either as free insulin or as a microsphere delivery system with lysophosphatidylcholine (LPC) as a bioavailability increasing material. The experiments were performed in replicate (n=4).\nNon-fasted New Zealand White female rabbits of average weight 3.5 kg were used in this study.\nA 40 IU/ml Zn- or Na-human insulin solution was prepared in buffer (1/75M Na2 HPO4) of pH 7.3-7.4. In some experiments 0.2% LPC was added.\nA total of 200 μl of the solution (100 μl in each nostril) was administered intranasally equivalent to about 2.3 IU/kg using an Eppendorf pipette.\nThe rabbits were dosed s.c. with insulin at 0.8 IU/kg or 0.6 IU/kg from a 14 IU/ml or 10 IU/ml aqueous solution, respectively.\nThe dose of starch microspheres and insulin was fixed at 2.5 mg/kg and 2.5 IU/kg, respectively. The dose of LPC was 0.2 mg/kg. The average weight of the rabbits was 3.5 kg.\n25 mg of microspheres were placed in a small glass vial and 250 μl of a 100 IU/ml insulin solution (Na- or Zn-insulin) was added followed by the 2 mg LPC and 250 μl of distilled water. The microspheres were then allowed to stand for 2 h at room temperature in contact with the insulin solution before freeze drying.\nApproximately 15 mg of the freeze dried powder from each individual vial was filled into the applicator tubing, and this was stored in a dessicator until use.\nEach rabbit was held on its back during, and for 10 second after, the application to ensure the delivery of the powdered formulation. Blood samples of 200 μl and 2 ml for glucose and insulin determination, respectively, were collected from the marginal ear vein at 10 and 5 min prior to the administration and at 5, 15, 30, 45, 60, 90, 120 and 180 min post-administration. […] The blood samples for glucose analysis were kept on crushed ice awaiting immediate analysis."}, "[6]": {"test": "Zn-human insulin nasal, in situ rat model, plasma glucose", "format": "in vivo, male Wistar rats", "method": "The Hirai's in situ model (as modified by Fisher) was used to study the nasal absorption of insulin using non-diabetic male Wistar Rats of 150 g fasted overnight. The rats were anaesthetized with an i.p. injection of 0.25 ml of Pentobarbitone (60 mg/ml).\nA 250 IV/ml solution of Zinc (Zn)-human insulin was prepared in buffer (1/75M Na2 HPO4)) of pH 7.3. In some experiments 0.2% of LPC or for comparison 1% Glycodeoxycholate (GDC) were added to the preparation as absorption enhancers. The experiments were performed in replicate (n=4). 10 μl was administered into the nasal cavity equivalent to 16.67 IV/kg (2.5 IV/rat). Blood samples (0.2 ml) were collected into 5 ml fluoride oxalate tubes at 10, 6 and 2 min pre-administration and at 5, 10, 20, 40, 60, 90, 120, 180, 240 and 300 min post-administration. The blood was replaced by saline administered through the jugular vein."}, "[7]": {"design": "species or system Male Wistar rats", "conditions": "rat, in vivo", "method": "The in situ rat model of Hirai et al (14) was used as modified by Fisher et al (15). Male Wistar rats of about 200 g were anaesthetized by intraperitoneal injection of 60 mg/kg of Pentobarbitone (Sagatal, 60 mg/ml). The rats were tracheotomized, the oesophagus sealed and the carotid artery cannulated.\nA volume of the gentamicin solution containing 0.5% of the drug with and without added lysophosphatidylcholine (LPC) (0.2%) was instilled into the nasal cavity. Blood samples were withdrawn from the carotid artery at 0, 5, 10, 15, 30, 45, 60 and 120 min after drug administration. The gentamicin level was determined by the EMIT method (16)."}, "[8]": {"conditions": "sheep, in vivo, 5 mg/kg", "method": "Cross-bred (Suffolk and Texel) sheep were divided into groups of 3 and 2. The mean weight of the sheep was about 40 kg.\nThe animals were not fasted prior to the administration of gentamicin. […] The catheter was removed upon completion of the study. […] The sedation lasted about 3 minutes. The animals that received gentamicin by the IV route were also sedated.\nThe first group of sheep (n=2) was given 0.25 ml of gentamicin solution (386 mg/ml) (5.0 mg/kg) into each nostril. The second group (n=3) received 0.25 ml of gentamicin solution (386 mg/ml) (5.0 mg/kg) containing 2 mg/ml LPC into each nostril. The third group (n=3) received 5.0 mg/kg gentamicin and 0.2 mg/kg LPC in combination with starch microspheres (1.9 mg gentamicin-/mg starch microspheres). The last group of sheep (n=3) was given 2 mg/kg gentamicin administered intravenously as a solution (40 mg/ml) through the jugular vein. Blood samples (2 ml) were collected through the jugular vein at 0, 8, 16, 24, 32, 45, 60, 90, 120, 180 and 240 min after drug administration. The serum was separated by centrifugation and the samples stored at -20° C. awaiting analysis. No heparin was added to any of the samples. The gentamicin level was determined by the EMIT technique (16)."}, "[9]": {"conditions": "cited from earlier work", "remark": "listed apart in the source"}, "[10]": {"test": "hGH nasal, in situ rat model (ELISA)", "format": "in vivo, male Wistar rats", "method": "For all experiments biosynthetic hGH was used.\nAs before the experiments were performed using the rat in situ model described by Hirai and modified by Fisher.\nNon-fasted male Wistar rats of about 200 g were divided into groups of 4 and anaesthetized using an i.p. injection of 0.35 ml of pentobarbitone (60 mg/ml).\nThree different hGH preparations were administered to the rats namely a 10 mg/ml solution of hGH in potassium phosphate buffer (1/75M), pH=7.2, as before with the addition of 0.05% LPC and as before with the addition of 0.5% LPC.\n20 μl (1 mg/kg) of either of the three preparations were administered intranasally by means of a plastic tubing.\nAll experiments were performed in replicate. Blood samples, 20 drops were collected and kept on ice at times 0, 5, 10, 20, 30, 40, 50, 60, 90, 120, 180, 240 and 300 min after the application. The plasma was separated and stored at -20° C. until analysis."}, "[11]": {"conditions": "in vivo"}, "[12]": {"conditions": "nasal, cited from earlier work"}, "[13]": {"conditions": "microspheres with lysophosphatidylcholine"}, "[14]": {"conditions": "intranasal solution without enhancer, 1 mg/kg"}}, "note": "Like-named read-outs stand apart in the source and are kept apart here."}
{"molecule": "CC(C)NC[C@H](O)COc1cccc2ccccc12", "note": "(racemic) [propanolol]", "values": [{"measurement": "plasma levels", "setting": "[1]", "result": "identical to intravenous administration"}]}
{"molecule": "NC(=O)CC[C@@H]1NC(=O)[C@H](Cc2ccccc2)NC(=O)[C@H](Cc2ccc(O)cc2)NC(=O)CCSSC[C@@H](C(=O)N2CCC[C@H]2C(=O)N[C@H](CCCN=C(N)N)C(=O)NCC(N)=O)NC(=O)[C@H](CC(N)=O)NC1=O", "note": "[DDVAP, reference compound]", "values": [{"measurement": "enhancement concept, outcome", "setting": "[2]; in vivo", "result": "successful"}]}
{"molecule": "O=C([O-])c1c(Cl)c(Cl)c(Cl)c(Cl)c1-c1c2cc(I)c(=O)c(I)c-2oc2c(I)c([O-])c(I)cc12.[Na+].[Na+]", "note": "[Rose bengal]", "values": [{"measurement": "maximum loading capacity", "setting": "[3]", "result": "170 μg per mg albumin microspheres"}]}
{"molecule": "CC(=O)[C@H]1CC[C@H]2[C@@H]3CCC4=CC(=O)CC[C@]4(C)[C@H]3CC[C@]12C", "note": "[progesterone]", "values": [{"measurement": "time of peak concentration", "setting": "[4]; nasal route", "result": "approximately 6 minutes"}, {"measurement": "bioavailability, oral", "setting": "[4]; oral route, compared to IV administration", "result": "~1.2", "unit": "%"}, {"measurement": "effectiveness, oral", "setting": "[4]; oral route", "result": "largely ineffective"}]}
{"molecule": "O=C(O)c1cc(=O)c2c(OCC(O)COc3cccc4oc(C(=O)O)cc(=O)c34)cccc2o1", "note": "[sodium cromoglycate]", "values": [{"measurement": "maximum loading capacity", "setting": "[3]", "result": "137 μg per mg albumin microspheres"}]}
{"molecule": "Na-insulin: Na-insulin (mainly monomer/dimer forms)", "values": [{"measurement": "shape of plasma glucose curves versus s.c.", "setting": "[5]", "result": "surprisingly similar to the ones obtained for the s.c. administration"}, {"measurement": "plasma glucose levels", "setting": "[5]", "result": "even more drastic decreases"}, {"measurement": "plasma glucose levels versus simple insulin solution", "setting": "[5]", "result": "lowered significantly"}]}
{"molecule": "Zn-insulin: Zn-insulin (mainly hexamer form)", "values": [{"measurement": "lowering of plasma glucose level", "setting": "[6]; intranasal simple solution", "result": "not effective"}, {"measurement": "plasma glucose level", "setting": "[6]; intranasal, with 0.2% LPC", "result": "fast and significant drop"}, {"measurement": "shape of plasma glucose curves versus s.c.", "setting": "[5]", "result": "surprisingly similar to the ones obtained for the s.c. administration"}, {"measurement": "plasma glucose levels", "setting": "[5]", "result": "even more drastic decreases"}, {"measurement": "plasma glucose levels versus simple insulin solution", "setting": "[5]", "result": "lowered significantly"}]}
{"molecule": "calcitonin: calcitonin [reference compound]", "values": [{"measurement": "enhancement concept, outcome", "setting": "[2]; [13]", "result": "successful"}]}
{"molecule": "gentamicin", "values": [{"measurement": "bioavailability", "setting": "[7]", "result": "poor bioavailability"}, {"measurement": "peak level relative to solution alone", "setting": "[7]", "result": "five fold greater"}, {"measurement": "bioavailability versus IV dose", "setting": "[8]", "result": 57.3, "unit": "%"}, {"measurement": "peak blood level", "setting": "[8]", "result": 0.4, "unit": "µg/mL"}, {"measurement": "enhancement concept, outcome", "setting": "[2]; in vivo", "result": "successful"}, {"measurement": "nasal absorption", "setting": "[9]; into the nose, without enhancer", "result": "poorly absorbed"}, {"measurement": "biological availability with bile salts", "setting": "[9]; nasal, added bile salts", "result": "enhanced"}]}
{"molecule": "hGH: biosynthetic hGH", "values": [{"measurement": "nasal absorption", "setting": "[10]; [14]", "result": "not absorbed at any significant degree"}, {"measurement": "plasma level peak", "setting": "[10]; [14]", "result": "about 3.5 ng/ml"}, {"measurement": "effect of 0.05% LPC on absorption", "setting": "[10]; intranasal with 0.05% LPC", "result": "no effect"}, {"measurement": "AUC", "setting": "[10]; intranasal with 0.5% LPC", "result": "very significant increase"}, {"measurement": "plasma level peak", "setting": "[10]; intranasal with 0.5% LPC, 1 mg/kg", "result": "about 57 ng/ml"}, {"measurement": "enhancement concept, outcome", "setting": "[2]; [13]", "result": "successful"}, {"measurement": "bioavailability versus subcutaneous injection", "setting": "[11]", "result": "about 20%"}, {"measurement": "plasma level with microspheres and LPC", "setting": "[11]", "result": "increased considerably"}, {"measurement": "shape of profile", "setting": "[11]; sc", "result": "flatter profile"}]}
{"molecule": "salmon calcitonin", "values": [{"measurement": "plasma calcitonin increase", "setting": "[12]; in combination with a surfactant", "result": "significant increase"}, {"measurement": "AUC increase", "setting": "[12]; with surfactant enhancer", "result": 10, "unit": "fold"}, {"measurement": "plasma calcitonin", "setting": "[12]; without enhancer", "result": "only trace amounts"}]}
{"molecule": "B1", "values": [{"measurement": "enhancement concept, outcome", "setting": "[2]; [13]", "result": "successful"}]}
